Here are results for two compounds from patent US20100184683A1, “ANTIBACTERIAL AND ANTIFUNGAL PEPTIDES” (C3 JIAN, INC., priority 2009, published 2010).

The subject of assay [1] is T. rubrum. The class given is cell-based, Trichophyton rubrum. The following applies: T. rubrum; Potato Dextrose Agar, 25° C., aerobic; inoculum 10^5 CFU/ml; 18-24 h or 48 h. The protocol:
(§1) In certain embodiments the MIC assays are performed as described herein in the Examples. For each organism, the media and growth conditions utilized is detailed in Table 8.
(§2) In certain embodiments the MIC assays are performed as follows: For each organism, the media and growth conditions utilized is detailed in Table 8.

Assay [2] has as its system S. epidermidis. The class given is cell-based. As to conditions: S. epidermidis; BHI supplemented with 0.25% glucose, 37° C., aerobic; inoculum 10^5 CFU/ml; 18-24 h or 48 h. The protocol: as §1, §2
Assay [3] relates to S. mutans. The class given is cell-based, Streptococcus mutans. The following applies: S. mutans; TH supplemented with 1% sucrose, 37° C., anaerobic; inoculum 10^5 CFU/ml; 18-24 h or 48 h. The protocol:
as §1, §2

Assay [4] concerns P. aeruginosa. The format is cell-based, Pseudomonas aeruginosa. As to conditions: P. aeruginosa; MH, 37° C., aerobic; inoculum 10^5 CFU/ml; 18-24 h or 48 h. The protocol:
as §1, §2

Assay [5] has as its system A. baumannii. The format is cell-based, Acinetobacter baumannii. As to conditions: A. baumannii; LB, 30° C., anaerobic; inoculum 10^5 CFU/ml; 18-24 h or 48 h. The protocol:
as §1, §2

Assay [6] deals with B. subtilis. The format is cell-based, Bacillus subtilis. The method, boiled down: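 Organism-specific media and growth conditions are used for MIC testing of every strain.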
Assay [7] relates to A. niger. The format is cell-based, Aspergillus niger. The following applies: A. niger; Potato Dextrose Agar, 25° C., aerobic; inoculum 10^5 CFU/ml; 18-24 h or 48 h. The protocol: as §1, §2
Assay [8] relates to C. jeikeium. Nature of the assay: MIC assay, C. jeikeium. The following applies: TSB supplemented with 1% Tween-80, 37° C., aerobic, inoculum 10^6 CFU/ml, 18-24 h or 48 h. The format is cell-based, Corynebacterium jeikium. The protocol: as §1, §2
The test system of assay [9] is C. difficile. The format is cell-based, Clostridium difficile. The following applies: C. difficile; BHIS, 37° C., anaerobic; inoculum 10^5 CFU/ml; 18-24 h or 48 h. The protocol:
as §1, §2

The subject of assay [10] is MRSA. The format is cell-based, Methicillin-resistant Staphylococcus aureus. As to conditions: MRSA; BHI supplemented with 2% glucose, 37° C., aerobic; inoculum 10^5 CFU/ml; 18-24 h or 48 h. The protocol:
as §1, §2

In brackets after ≈: the same amount, converted by molar mass. Read-outs that look alike come from different tables or passages of the source. Peptide text beside a SMILES is read from it.

What is called MIC is the least concentration at which growth counts as inhibited. A lower MIC goes with greater potency. For YIQFHLNQQPRPKVKKIKIFL [PF-531], the minimal inhibitory concentration (MIC) in assay [1] was found to be 50 µM; in assay [2], 50 µM; in assay [3], 12.5 µM; in [4] it was 50 µM; in assay [5] it was 25 µM; in assay [6] (B. subtilis, BHI, 30° C., aerobic, inoculum 10^5 CFU/ml, 18-24 h or 48 h), 25 µM. Also, the figures for the MIC in [7], in assay [8] and in [9] were 25 µM, 6.25 µM and 12.5 µM, respectively.
In the case of `CC[C@H](C)[C@H](NC(=O)[C@H](CCCNC(=N)N)NC(=O)[C@@H](NC(=O)[C@H](CCCCN)NC(=O)[C@H](CCCCN)NC(=O)[C@H](CC(C)C)NC(=O)[C@H](CC(C)C)NC(=O)[C@H](CCCCN)NC(=O)[C@H](CCCNC(=N)N)NC(=O)[C@H](Cc1c[nH]cn1)NC(=O)[C@H](CCCCN)NC(=O)[C@H](CCCCN)NC(=O)[C@H](CCCCN)NC(=O)[C@H](C)NC(=O)[C@H](CCSC)NC(=O)[C@H](CCCNC(=N)N)NC(=O)[C@H](CCCCN)NC(=O)[C@H](CCCNC(=N)N)NC(=O)[C@H](CCCNC(=N)N)NC(=O)[C@H](CCCCN)NC(=O)[C@H](CCCCN)NC(=O)[C@@H](NC(=O)[C@@H](NC(=O)[C@H](CO)NC(=O)CN)C(C)C)[C@@H](C)CC)[C@@H](C)O)C(=O)N[C@@H](CCC(N)=O)C(=O)N[C@@H](CCCNC(=N)N)C(=O)N[C@@H](CCCNC(=N)N)C(=O)N[C@@H](CCCNC(=N)N)C(=O)N[C@@H](C)C(=O)NCC(=O)N[C@@H](CCCCN)C(=O)O` [PF-527] (H-GSVIKKRRKRMAKKKHRKLLKKTRIQRRRAGK-OH; N-terminus and C-terminus assumed), the minimal inhibitory concentration (MIC) in [1] stood at 25 µM (≈ 98.5 µg/mL); in assay [10] it was 50 µM (≈ 197 µg/mL); in [2], 25 µM (≈ 98.5 µg/mL); in [4] it was 50 µM (≈ 197 µg/mL); in [6], 12.5 µM (≈ 49.3 µg/mL); in assay [7] it was 50 µM (≈ 197 µg/mL). The MIC in assay [8] is 6.25 µM (≈ 24.6 µg/mL).
